Laboratory results taken from patent publication US20130052381A1, “POLYEPOXIDES AND EPOXY RESINS AND METHODS FOR THE MANUFACTURE AND USE THEREOF” (priority 2011, published 2013).

What was measured:
[1] = molecular target: T1, recombinant human estradiol receptors (rhER) alpha (α) (Homo sapiens, UniProt P03372); experiment: competitive radioligand binding assay, rhER alpha; details: at as high as […]10^−4 molar concentration
T1 sequence (P03372 1-595): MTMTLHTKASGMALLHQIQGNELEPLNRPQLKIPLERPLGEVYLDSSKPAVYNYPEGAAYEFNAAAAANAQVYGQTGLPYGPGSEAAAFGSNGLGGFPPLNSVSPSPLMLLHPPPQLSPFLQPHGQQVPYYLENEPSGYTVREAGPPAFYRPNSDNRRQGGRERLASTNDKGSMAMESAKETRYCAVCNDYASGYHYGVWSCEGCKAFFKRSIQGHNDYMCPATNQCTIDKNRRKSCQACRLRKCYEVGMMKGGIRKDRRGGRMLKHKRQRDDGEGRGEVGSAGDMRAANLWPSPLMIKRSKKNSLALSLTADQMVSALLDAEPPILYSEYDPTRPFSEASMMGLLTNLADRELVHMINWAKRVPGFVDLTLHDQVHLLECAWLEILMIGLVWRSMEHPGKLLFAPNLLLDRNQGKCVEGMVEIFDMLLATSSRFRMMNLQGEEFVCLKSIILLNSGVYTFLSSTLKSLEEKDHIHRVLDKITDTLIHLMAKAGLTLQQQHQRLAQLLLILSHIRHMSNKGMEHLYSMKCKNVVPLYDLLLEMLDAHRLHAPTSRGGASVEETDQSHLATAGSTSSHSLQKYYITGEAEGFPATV

[2] = molecular target: recombinant human estradiol receptors (rhER) beta 1 (β1) (Homo sapiens, UniProt Q92731); experiment: competitive radioligand binding assay, rhER beta 1; details: at as high as […]10^−4 molar concentration

Compound | estradiol displacement at the alpha estradiol receptor [1] | estradiol displacement at the beta estradiol receptor [2]
O=C1c2ccccc2C(c2ccc(O)cc2)(c2ccc(O)cc2)N1c1ccccc1 [Example 4, N-Phenyl Phenolphthalein Bisphenol] | no detectible estradiol displacement | no detectible estradiol displacement
Oc1cccc(O)c1 [Example 5, Resorcinol] | no detectible estradiol displacement | no detectible estradiol displacement
CC(C)(C)c1cc(O)c(C(C)(C)C)cc1O [Example 8, Di t-Butyl Hydroquinone] | no displacement | no displacement
Cc1cc(O)ccc1O [Example 9, Methyl Hydroquinone] | – | no alpha or beta estradiol displacement
Biphenol [Example 7] | no displacement | –
